In patent publication US20260243757A1, “IMMUNE CELL-DERIVED SECRETOME” (Agency for Science, Technology and Research, priority 2023, published 2026):

Assays:
[1] = tested on: CHLA01R (recurrent/relapse tumour cells); assay: Drug treatment in secretome versus standard media (FIG. 41); type: cell-based, human; details: CHLA01R neurospheres
CHLA-02 and BT-37 cells = assay: Immunoblotting after OTSSP167 treatment; type: cell-based, human
Experimental: Cells were lysed in RIPA buffer with 1% Protease and Phosphatase Inhibitor Cocktail on ice. Protein samples were first denatured with 5% β-mercaptoethanol in Laemmli's buffer at 95° C. Protein concentration was determined using Protein Assay Kit. Protein lysates were resolved, and equal amounts of denatured proteins was run on NuPAGE 4-12% Bis-Tris Protein Gel and transferred onto PVDF membrane. Membrane blots for phosphorylated Histone H2A.X were blocked with 5% Bovine serum albumin (BSA) in 1× TBS-T ([…] Tris-buffered Saline, 0.1 % Tween® 20). Other membrane blots were blocked with 5% skim milk in 1× TBS-T for 1 hour and incubated with its respective primary antibodies at 4° C. overnight. Protein bands were visualized using an imaging system with Western blotting substrate. Primary antibodies used were: Eg5, cleaved PARP, β-actin, cleaved caspase-3, and p53, p-Histone H2A.X, p21. Secondary antibodies included: anti-rabbit IgG HRP-linked and anti-mouse IgG HRP linked.

CHLA-04 = assay: Proliferation assay (standard growth media), OTSSP167; type: cell-based, human; details: MELK-low CHLA-04; 50 nM dose
Experimental: (§1) Tumour cells were seeded in quadruplicates for each treatment condition (FIG. 5B). OTSSP167 was added. Cell proliferation was determined, and optical density (OD) was measured using a fluorescence/luminescence detection System.

BT-37 [2] = assay: Flow cytometry for apoptotic cell death (Annexin V/PI); type: cell-based, human; details: BT-37 cells; 48 hours of OTSSP167 treatment
Experimental: (§2) Tumour cells were treated in culture with OTSSP167 to detect apoptosis (FIG. 5C). At each timepoint, cells were harvested and stained with Annexin V-FITC and PI. Stained cells were then analysed by flow cytometry at the excitation wavelength of 488 nm (FITC) and 595 nM (PI). Cultured cells were treated with OTSSP167 to study the cell cycle changes. Cells were harvested and fixed with absolute ethanol. Fixed cells were stained with PI/RNase A master mix (PI and RNase A) prior to analysis by flow cytometry.

CHLA-02 [3] = assay: as above; type: cell-based, human; details: CHLA-02 cells; 48 hours of OTSSP167 treatment
Experimental: as §2

another ATRT mouse model = details: cited from earlier work
BT-37 [4] = assay: Proliferation assay (standard growth media), OTSSP167 dose-response; type: cell-based, human
Experimental: as §1

CHLA-02 [5] = assay: as above; type: cell-based; details: Homo sapiens, 96 h, Day 4
Experimental: as §1

six ATRT cell lines = assay: Proliferation assay (standard growth media), panel; type: cell-based, human; details: over 13 days
Experimental: as §1

Daoy = assay: Drug treatment in secretome versus standard media (FIG. 41); type: cell-based, human
[6] = tested on: CHLA01 (primary tumour cells); assay: as above; type: cell-based, human; details: CHLA01 neurospheres
D341 = assay: as above; type: cell-based, human
CHLA-02, BT-37 = assay: Cell proliferation assay (secretome-based or growth-media-based), DMSO or OTSSP167; design: species or system human
Experimental: Human myeloid-derived cells (U937) were seeded at a fixed density and stimulated with PMA and IL-4 for 48 h to obtain CD 11b+ cells. Stimulated human myeloid-derived macrophages were harvested without trypsinization (Biological replicate 1 in FIG. 4D and FIG. 5E) and with trypsinization (Biological replicate 2 and 3 in FIG. 4D and FIG. 5E). These cells highly express CD11b+ with or without trypsinization (FIG. 14A). CD11b+ cells were washed twice with PBS. CD11b+ cells were plated at a fixed density in 1 ml of pure RPMI (serum-free) to obtain CD11b+ supernatants (Condition 2). CD11b+ cells (same density) were co-incubated with tumour cells at 1:1 ratio in pure RPMI (serum-free) to obtain co-culture supernatant (Condition 3). Tumour cells were seeded at the same density to obtain tumour supernatant (Condition 1). […]
Tumour cells were suspended in 3 types of cell-free supernatants: CD 11b+ supernatant, tumour supernatant, and CD11b+-tumour co-culture supernatant. […] Cell viability was determined by a kit at 4 h, 24 h, 48 h, 72 h time points, over a period of 3 days. Optical density (OD) was measured using a fluorescence/luminescence detection system (FIGS. 4A, 4B, FIG. 18). All other absorbance (OD) was measured at 450 nm using a multilabel plate reader. Absorbance of wells with serum-free pure RPMI was used as blank.

[7] = tested on: autopsy-derived patient-derived orthotopic xenograft (PDOX) Model of ATRT; assay: Orthotopic xenograft survival, intraperitoneal OTSSP167; type: in vivo, mice; details: 5 mg/kg daily intraperitoneal for 14 days; p=0.032, Log-rank test
Experimental: (§3) Rag2/Severe combined immune deficiency (SCID) mice were bred and housed in a pathogen-free facility. Surgical implantation of tumour cells ([…]) into mouse cerebrum was performed using the method of the present disclosure previously described by studies in the art. The general recommendations in ARRIVE guidelines 2.0 (https://arriveguidelines.org/) were followed in the study of the present disclosure. The sample size of the present disclosure was small. […] The animals were randomly assigned into treatment versus control groups to have approximately equal number of animals per group. […] Treatment was delivered to animals assigned in treatment group, cage-by-cage. Blinding was not possible as the inventor of the present disclosure have a small team of 2-3 individuals working with the animals and the inventor of the present disclosure are all involved at various stages and day-to-day processes of the animal work. Separate batches comprising of various litters were used, minimizing bias from the same litter effect. The inventor of the present disclosure has previously published using this animal protocol and is not otherwise deposited in any repository/registry.
OTSSP167 was dissolved in a solution of dimethyl sulfoxide, Kolliphor® EL and sterile water. […]
Mice were carefully monitored daily their fitness using a clinical staging system we previously published. […]

CHLA-02 [8] = assay: Photomicrographs of growth morphology in T75 flasks; type: cell-based, human; details: OTSSP167 in secretome versus standard growth media
BT-37 [9] = assay: Apoptosis assay of OTSSP167-treated cells, standard growth media versus six-factor secretome; type: cell-based, human
Experimental: (§4) Tumour cells were cultured in either standard growth media or six-factor-secretome for […] different duration −4 h, 24 h, 48 h and 96 h (FIG. 5G). To study the killing effect of OTSSP167, tumour cells cultured in each condition (standard growth media or six-factor-secretome) were treated with OTSSP167. Cells were harvested at respective timepoints and stained with FITC-Annexin V and/or Propidium lodide. Stained cells were then analysed by flow cytometry at the excitation wavelength of 488 nm (FITC) and 595 nM (PI). A total of 10,000 cells were analysed per measurement.

CHLA-02 [10] = assay: as above; type: cell-based, human; details: FIG. 37
Experimental: as §4

[11] = tested on: ATRT cell lines and medulloblastoma; assay: Drug efficacy in the presence of the secretome; type: cell-based, human; details: during early tumourigenesis
Medulloblastoma = assay: Ispinesib in PDX brain tumors implanted using secretome+Tumor (Batch 94B); type: in vivo, mice; details: 10 mg/kg intraperitoneally every four days for three doses, repeated on day 21
Experimental: as §3
OTSSP167 was dissolved in a solution of dimethyl sulfoxide, Kolliphor® EL and sterile water. A daily dose of 5 mg/kg of OTSSP167 was administered to the mice via intraperitoneal injection for 14 days. […]

## CC(=O)c1cnc2ccc(-c3cc(Cl)c(O)c(Cl)c3)nc2c1N[C@H]1CC[C@H](CN(C)C)CC1 [OTSSP167, 1-(6-(3,5-dichloro-4-hydroxyphenyl)-4-(((1r,4r)-4-((dimethylamino)methyl)cyclohexyl)amino)-1,5-naphthyridin-3-yl)ethenone]
[1]
  cell death/survival with drug in secretome compared to standard media: survive better
CHLA-02 and BT-37 cells; 24 h, 48 h and 72 h treatment
  p-Histone H2A.X (DNA damage): increased
CHLA-02 and BT-37 cells; OTSSP167 treatment
  c-PARP (intrinsic apoptosis pathway): increased
  p53: increased
CHLA-04
  effect against tumour cells: effective
BT-37 [2]
  early and late apoptotic cells: 58.1%
CHLA-02 [3]
  early and late apoptotic cells: 50.7%
Another ATRT mouse model
  blood-brain-barrier penetration: penetrate blood-brain-barrier
BT-37 [4]; Homo sapiens, 96 h, BT-37, Day 4
  IC50: 70.4 nM
BT-37 [4]; MELK-high BT-37 cells, 5 nM dose
  effect against tumour cells: effective
CHLA-02 [5]
  IC50: 20.8 nM
Six ATRT cell lines
  efficacy across panel of ATRT cell lines (dose-response): efficacious across a panel of six ATRT cell lines in nanomolar ranges
Daoy
  cell death/survival with drug in secretome compared to standard media: higher cell death
[6]
  cell death/survival with drug in secretome compared to standard media: survive better
D341
  cell death/survival with drug in secretome compared to standard media: higher cell death
CHLA-02, BT-37
  OTSSP167 efficacy in six-factor-secretome compared to standard growth media (tumour proliferation): decreased
[7]
  overall survival of animals: significantly improved
CHLA-02 [8]
  growth morphology of tumour cells treated with OTSSP167 in secretome: maintained their interlacing, web-like architecture
BT-37 [9]; BT-37, FIG. 38
  cell death with OTSSP167 in secretome compared to standard media conditions: more cell death
BT-37 [9]; in secretome after 24-48 h
  cell death of OTSSP167-treated BT-37 versus CHLA-02 in secretome: more cell death than CHLA-02 cells
CHLA-02 [10]
  cell death with OTSSP167 in secretome compared to standard media conditions: more cell death
[11]
  drug efficacy in the presence of the secretome: reduced

## Cc1ccc(C(=O)N(CCCN)[C@@H](c2nc3cc(Cl)ccc3c(=O)n2Cc2ccccc2)C(C)C)cc1 [Ispinesib, (R)-N-(3-aminopropyl)-N-(1-(3-benzyl-7-chloro-4-oxo-3,4-dihydroquinazolin-2-yl)-2-methylpropyl)-4-methylbenzamide]
[1]
  cell death/survival with drug in secretome compared to standard media: survive better
Medulloblastoma
  efficacy in PDX brain tumors implanted using secretome+Tumor: effective
[6]
  cell death/survival with drug in secretome compared to standard media: survive better
D341
  cell death/survival with drug in secretome compared to standard media: survive better
[11]
  drug efficacy in the presence of the secretome: reduced
